Assay results reported in patent US11780852B2, “Methods for treating Crohn's disease using 3-((1R,3s,5S)-3-((7-((5-methyl-1H-pyrazol-3-yl)amino)-1,6-naphthyridin-5-yl)amino)-8-azabicyclo[3.2.1]octan-8-yl)propanenitrile” (priority 2015, dated 2023).

The compounds below were run on IL-4 induced STAT6 phosphorylation in THP-1 human monocytic cells (assay: not given). Details: not given.
For Cc1cc(Nc2cc3ncccc3c(N[C@@H]3C[C@H]4CC[C@@H](C3)N4C(=O)c3ccccc3)n2)n[nH]1 [Example 2-12], the “THP-1 IL4 pIC50” value was “B (key: A represents a pEC50 value ≥7.5 (EC50≤32 nM); B represents a pEC50 value between 6.7 and 7.5 (EC50 between 200 nM and 32 nM); C represents a pEC50 value <6.7 (EC50>200 nM))”. Cc1cc(Nc2cc3ncccc3c(N[C@@H]3C[C@H]4CC[C@@H](C3)N4CC3COC(=O)O3)n2)n[nH]1 (some centres unmarked) [Example 1-30] was tested, and the “THP-1 IL4 pIC50” value was “B (key: A represents a pEC50 value ≥7.5 (EC50≤32 nM); B represents a pEC50 value between 6.7 and 7.5 (EC50 between 200 nM and 32 nM); C represents a pEC50 value <6.7 (EC50>200 nM))”. For Cc1cc(Nc2cc3ncccc3c(N[C@@H]3C[C@H]4CC[C@@H](C3)N4C3CCCOC3=O)n2)n[nH]1 (some centres unmarked) [Example 1-28], the “THP-1 IL4 pIC50” value was “C (key: A represents a pEC50 value ≥7.5 (EC50≤32 nM); B represents a pEC50 value between 6.7 and 7.5 (EC50 between 200 nM and 32 nM); C represents a pEC50 value <6.7 (EC50>200 nM))”. In the case of Cc1cc(Nc2cc3ncccc3c(N[C@@H]3C[C@H]4CC[C@@H](C3)N4Cc3ccc(O)cc3)n2)n[nH]1 [Example 1-18], the “THP-1 IL4 pIC50” value is reported as “C (key: A represents a pEC50 value ≥7.5 (EC50≤32 nM); B represents a pEC50 value between 6.7 and 7.5 (EC50 between 200 nM and 32 nM); C represents a pEC50 value <6.7 (EC50>200 nM))”. With Cc1cc(Nc2cc3ncccc3c(N[C@@H]3C[C@H]4CC[C@@H](C3)N4C(=O)c3ccncc3)n2)n[nH]1 [Example 2-13] the “THP-1 IL4 pIC50” value was “B (key: A represents a pEC50 value ≥7.5 (EC50≤32 nM); B represents a pEC50 value between 6.7 and 7.5 (EC50 between 200 nM and 32 nM); C represents a pEC50 value <6.7 (EC50>200 nM))”.

Same assay, conditions: THP-1 cells, IL-4 induced STAT6 phosphorylation
With COC(=O)C1(C(=O)N2[C@@H]3CC[C@H]2C[C@H](Nc2nc(Nc4cc(C)[nH]n4)cc4ncccc24)C3)CC1 [Example 2-9] the “THP-1 IL4 pIC50” value was “C (C represents a pEC50 value <6.7 (EC50>200 nM))”. In the case of Cc1cc(Nc2cc3ncccc3c(N[C@H]3C[C@H]4CCC[C@@H](C3)N4C3CCOC3=O)n2)n[nH]1 (some centres unmarked) [Example 1-52], the “THP-1 IL4 pIC50” value is reported as “B (B represents a pEC50 value between 6.7 and 7.5 (EC50 between 200 nM and 32 nM))”.

These compounds were tested on oxazolone-induced colitis (assay: Mouse model of oxazolone-induced colitis). Details: PO, 1, 3, and/or 10 mg/kg BID (doses up to 10 mg/kg BID).
Type: in vivo, BALB/C mice
Method: Assay 7: Mouse Model of Oxazalone-Induced Colitis
Oxazolone-induced colitis is an experimental model that has a histological resemblance to human ulcerative colitis (Heller et al. Immunology, 2002, 17, 629-638). Adult BALB/C mice from Harlan were used in the assay. On day 1, animals were lightly anesthetized with isoflurane and the hairs between the shoulder were carefully removed before oxazolone (4%, 150 μL, 4:1 acetone:olive oil formulation) or vehicle solution was slowly applied for skin sensitization. Seven days after skin sensitization, the mice were fasted overnight, anesthetized with isoflurane inhalation, and a 1 mL syringe equipped with a 3.5-F catheter, filled with oxazolone solution, was inserted carefully about 4 cm into the colon of the mouse. Following insertion, 50 μL of the oxazolone solution (1%, 1:1 ethanol:water formulation) was injected very slowly (over 30 sec using an injection pump) into the colon. The catheter was removed and the mice were held vertically (head down) for 2 min to ensure that the entire oxazolone solution remained inside the colon. Drug treatment (PO, BID or TID) or vehicle was initiated a day prior to the oxazolone intrarectal (IR) challenge. Two-day post oxazolone intrarectal challenge, the Disease Activity Index (DAI) was assessed by treatment-blinded experimenters for each mouse according to the criteria score: stool consistency score (0, normal; 2, loose; 4, diarrhea), gross bleeding score (0, absence; 2, blood tinged; 4, presence), and weight loss score (0, none; 1, 1%-5%; 2, 5%-10^%; 3, 10%-20%; 4, more than 20%); DAI=average of (stool consistency score+gross bleeding score+weight loss score).
Selected compounds of the invention were tested in the assay. Efficacy in the model is evidenced by a decrease in DAI score as compared with the score from vehicle treated animals.
For CCS(=O)(=O)N1[C@@H]2CC[C@H]1C[C@H](Nc1nc(Nc3cc(C)[nH]n3)cc3ncccc13)C2 [Example 7, N^5-((1R,3s,5S)-8-(ethylsulfonyl)-8-azabicyclo[3.2.1]octan-3-yl)-N^7-(5-methyl-1H-pyrazol-3-yl)-1,6-naphthyridine-5,7-diamine], the “DAI score as compared with vehicle treated animals” value was “did not exhibit a statistically significant decrease”. Cc1cc(Nc2cc3ncccc3c(N[C@@H]3C[C@H]4CC[C@@H](C3)N4S(=O)(=O)Cc3ccccc3)n2)n[nH]1 [Example 4-13] was tested, and the “DAI score as compared with vehicle treated animals” value was “did not exhibit a statistically significant decrease”. For CCC(C)C(=O)N1C2CCC1CC(Nc1nc(Nc3cc(C)[nH]n3)cc3ncccc13)C2 (centres unmarked) [Example 2-6], the “DAI score as compared with vehicle treated animals” value was “did not exhibit a statistically significant decrease”. In the case of Cc1cc(Nc2cc3nc(CO)ccc3c(N[C@@H]3C[C@H]4CC[C@@H](C3)N4CCC#N)n2)n[nH]1 [Example 5-11], the “DAI score as compared with vehicle treated animals” value is reported as “did not exhibit a statistically significant decrease”. With Cc1cc(Nc2cc3ncccc3c(N[C@@H]3C[C@H]4CCC[C@@H](C3)N4C(=O)CN(C)C)n2)n[nH]1 [Example 4, 2-(Dimethylamino)-1-((1R,3s,5S)-3-((7-((5-methyl-1H-pyrazol-3-yl)amino)-1,6-naphthyridin-5-yl)amino)-9-azabicyclo[3.3.1]nonan-9-yl)ethan-1-one] the “DAI score as compared with vehicle treated animals” value was “statistically significant decrease”. With Cc1cc(Nc2cc3ncccc3c(N[C@@H]3C[C@H]4CC[C@@H](C3)N4C(=O)C(F)F)n2)n[nH]1 [Example 5, 2,2-difluoro-1-((1R,3s,5S)-3-((7-((5-methyl-1H-pyrazol-3-yl)amino)-1,6-naphthyridin-5-yl)amino)-8-azabicyclo[3.2.1]octan-8-yl)ethan-1-one] the “DAI score as compared with vehicle treated animals” value was “statistically significant decrease”. With COCCS(=O)(=O)N1[C@@H]2CC[C@H]1C[C@H](Nc1nc(Nc3cc(C)[nH]n3)cc3ncccc13)C2 [Example 6, N^5-((1R,3s,5S)-8-((2-methoxyethyl)sulfonyl)-8-azabicyclo[3.2.1]octan-3-yl)-N^7-(5-methyl-1H-pyrazol-3-yl)-1,6-naphthyridine-5,7-diamine] the “DAI score as compared with vehicle treated animals” value was “statistically significant decrease”. Cc1cc(Nc2cc3ncccc3c(N[C@@H]3C[C@H]4CCC[C@@H](C3)N4S(=O)(=O)N3CC(C#N)C3)n2)n[nH]1 [Example 11, 1-(((1R,3s,5S)-3-((7-((5-methyl-1H-pyrazol-3-yl)amino)-1,6-naphthyridin-5-yl)amino)-9-azabicyclo[3.3.1]nonan-9-yl)sulfonyl)azetidine-3-carbonitrile] was tested, and the “DAI score as compared with vehicle treated animals” value was “did not exhibit a statistically significant decrease”. For Cc1cc(Nc2cc3ncccc3c(N[C@@H]3C[C@H]4CC[C@@H](C3)N4S(=O)(=O)c3cccnc3)n2)n[nH]1 [Example 3, N^7-(5-methyl-H-pyrazol-3-yl)-N-((1R,3s,5S)-8-(pyridin-3-ylsulfonyl)-8-azabicyclo[3.2.1]octan-3-yl)-1,6-naphthyridine-5,7-diamine], the “DAI score as compared with vehicle treated animals” value was “statistically significant decrease”. With Cc1cc(Nc2cc3ncccc3c(N[C@@H]3C[C@H]4CC[C@@H](C3)N4S(=O)(=O)N3CC(C#N)C3)n2)n[nH]1 [Example 13, 1-(((1R,3s,5S)-3-((7-((5-methyl-1H-pyrazol-3-yl)amino)-1,6-naphthyridin-5-yl)amino)-8-azabicyclo[3.2.1]octan-8-yl)sulfonyl)azetidine-3-carbonitrile] the “DAI score as compared with vehicle treated animals” value was “did not exhibit a statistically significant decrease”. With Cc1cc(Nc2cc3ncccc3c(N[C@@H]3C[C@H]4CCC[C@@H](C3)N4CC(=O)N(C)C)n2)n[nH]1 [Example 1-38] the “DAI score as compared with vehicle treated animals” value was “statistically significant decrease”. For Cc1cc(Nc2cc3ncccc3c(N[C@@H]3C[C@H]4CCC[C@@H](C3)N4C(=O)C(C)(C)CO)n2)n[nH]1 [Example 2-22], the “DAI score as compared with vehicle treated animals” value was “did not exhibit a statistically significant decrease”. With Cc1cc(Nc2cc3ncccc3c(NC3CC4CCCC(C3)N4C(=O)C(C)O)n2)n[nH]1 (centres unmarked) [Example 2-16] the “DAI score as compared with vehicle treated animals” value was “did not exhibit a statistically significant decrease”. In the case of Cc1cc(Nc2cc3ncccc3c(N[C@@H]3C[C@H]4CC[C@@H](C3)N4S(=O)(=O)CC(C)C)n2)n[nH]1 [Example 4-3], the “DAI score as compared with vehicle treated animals” value is reported as “did not exhibit a statistically significant decrease”. Cc1cc(Nc2cc3ncccc3c(N[C@@H]3C[C@H]4CCC[C@@H](C3)N4S(=O)(=O)c3ccccc3)n2)n[nH]1 [Example 9, N-(5-methyl-1H-pyrazol-3-yl)-N-((1R,3s,5S)-9-(phenylsulfonyl)-9-azabicyclo[3.3.1]nonan-3-yl)-1,6-naphthyridine-5,7-diamine] was tested, and the “DAI score as compared with vehicle treated animals” value was “did not exhibit a statistically significant decrease”. With COCCS(=O)(=O)N1[C@@H]2CCC[C@H]1C[C@H](Nc1nc(Nc3cc(C)[nH]n3)cc3ncccc13)C2 [Example 4-19] the “DAI score as compared with vehicle treated animals” value was “did not exhibit a statistically significant decrease”. For Cc1cc(Nc2cc3ncccc3c(N[C@@H]3C[C@H]4CC[C@@H](C3)N4S(=O)(=O)C3CC3)n2)n[nH]1 [Example 4-4], the “DAI score as compared with vehicle treated animals” value was “did not exhibit a statistically significant decrease”. Cc1cc(Nc2cc3ncccc3c(N[C@@H]3C[C@H]4CCC[C@@H](C3)N4S(=O)(=O)C3CC3)n2)n[nH]1 [Example 4-18] was tested, and the “DAI score as compared with vehicle treated animals” value was “did not exhibit a statistically significant decrease”. In the case of Cc1cc(Nc2cc3ncccc3c(N[C@@H]3C[C@H]4CC[C@@H](C3)N4CCF)n2)n[nH]1 [Example 2, N^5-((1R,3s,5S)-8-(2-fluoroethyl)-8-azabicyclo[3.2.1]octan-3-yl)-N^7-(5-methyl-1H-pyrazol-3-yl)-1,6-naphthyridine-5,7-diamine], the “DAI score as compared with vehicle treated animals” value is reported as “statistically significant decrease”. CCOCC(=O)N1[C@@H]2CCC[C@H]1C[C@H](Nc1nc(Nc3cc(C)[nH]n3)cc3ncccc13)C2 [Example 2-17] was tested, and the “DAI score as compared with vehicle treated animals” value was “did not exhibit a statistically significant decrease”. With Cc1cc(Nc2cc3ncccc3c(N[C@@H]3C[C@H]4CCC[C@@H](C3)N4C(=O)Cc3ccccc3)n2)n[nH]1 [Example 2-24] the “DAI score as compared with vehicle treated animals” value was “did not exhibit a statistically significant decrease”. In the case of Cc1cc(Nc2cc3ncccc3c(N[C@@H]3C[C@H]4CCC[C@@H](C3)N4S(=O)(=O)CC3CC3)n2)n[nH]1 [Example 4-23], the “DAI score as compared with vehicle treated animals” value is reported as “did not exhibit a statistically significant decrease”.
